Data from ChEMBL document CHEMBL1131152, “In vitro and in vivo activities of oligodeoxynucleotide-based thrombin inhibitors containing neutral formacetal linkages” (J Med Chem, 1998).

Target: Prothrombin (Homo sapiens) (UniProt P00734)
Test: Relative prothrombin time was determined as the activity of the test ODN (oligodeoxynucleotide) relative to that of GS-522

Row | Relative PT | Structure (SMILES)
1 | 0.6 | Cc1cn([C@H]2C[C@H](OP(=O)(O)OC[C@H]3O[C@@H](n4cnc5c(=O)nc(N)[nH]c54)C[C@@H]3OCOC[C@H]3O[C@@H](n4cnc5c(=O)[nH]c(=N)[nH]c54)C[C@@H]3OP(=O)(O)OC[C@H]3O[C@@H](n4cc(C)c(=O)[nH]c4=O)C[C@@H]3OP(=O)(O)OC[C@H]3O[C@@H](n4cnc5c(=O)[nH]c(=N)[nH]c54)C[C@@H]3OP(=O)(O)OC[C@H]3O[C@@H](n4cc(C)c(=O)[nH]c4=O)C[C@@H]3OP(=O)(O)OC[C@H]3O[C@@H](n4cnc5c(=O)nc(N)[nH]c54)C[C@@H]3OP(=O)(O)OC[C@H]3O[C@@H](n4cnc5c(=O)[nH]c(=N)[nH]c54)C[C@@H]3OP(=O)(O)OC[C@H]3O[C@@H](n4cc(C)c(=O)[nH]c4=O)C[C@@H]3OP(=O)(O)OC[C@H]3O[C@@H](n4cc(C)c(=O)[nH]c4=O)C[C@@H]3OP(=O)(O)OC[C@H]3O[C@@H](n4cnc5c(=O)[nH]c(=N)[nH]c54)C[C@@H]3OCOC[C@H]3O[C@@H](n4cnc5c(=O)nc(N)[nH]c54)C[C@@H]3O)[C@@H](COP(=O)(O)O[C@H]3C[C@H](n4cc(C)c(=O)[nH]c4=O)O[C@@H]3COP(=O)(O)O[C@H]3C[C@H](n4cnc5c(=O)nc(N)[nH]c54)O[C@@H]3COP(=O)(O)O[C@H]3C[C@H](n4cnc5c(=O)[nH]c(=N)[nH]c54)O[C@@H]3COP(=O)(O)O)O2)c(=O)[nH]c1=O
2 | 0.7 | Cc1cn([C@H]2C[C@H](OP(=O)(O)OC[C@H]3O[C@@H](n4cnc5c(=O)nc(N)[nH]c54)C[C@@H]3OP(=O)(O)OC[C@H]3O[C@@H](n4cnc5c(=O)[nH]c(=N)[nH]c54)C[C@@H]3OP(=O)(O)OC[C@H]3O[C@@H](n4cc(C)c(=O)[nH]c4=O)C[C@@H]3OP(=O)(O)OC[C@H]3O[C@@H](n4cnc5c(=O)[nH]c(=N)[nH]c54)C[C@@H]3OP(=O)(O)OC[C@H]3O[C@@H](n4cc(C)c(=O)[nH]c4=O)C[C@@H]3OP(=O)(O)OC[C@H]3O[C@@H](n4cnc5c(=O)nc(N)[nH]c54)C[C@@H]3OP(=O)(O)OC[C@H]3O[C@@H](n4cnc5c(=O)[nH]c(=N)[nH]c54)C[C@@H]3OP(=O)(O)OC[C@H]3O[C@@H](n4cc(C)c(=O)[nH]c4=O)C[C@@H]3OP(=O)(O)OC[C@H]3O[C@@H](n4cc(C)c(=O)[nH]c4=O)C[C@@H]3OP(=O)(O)OC[C@H]3O[C@@H](n4cnc5c(=O)[nH]c(=N)[nH]c54)C[C@@H]3OCOC[C@H]3O[C@@H](n4cnc5c(=O)nc(N)[nH]c54)C[C@@H]3O)[C@@H](COP(=O)(O)O[C@H]3C[C@H](n4cc(C)c(=O)[nH]c4=O)O[C@@H]3COP(=O)(O)O[C@H]3C[C@H](n4cnc5c(=O)nc(N)[nH]c54)O[C@@H]3COCO[C@H]3C[C@H](n4cnc5c(=O)[nH]c(=N)[nH]c54)O[C@@H]3COP(=O)(O)O)O2)c(=O)[nH]c1=O
3 | 0.4 | Cc1cn([C@H]2C[C@H](OCOC[C@H]3O[C@@H](n4cnc5c(=O)[nH]c(=N)[nH]c54)C[C@@H]3OP(=O)(O)OC[C@H]3O[C@@H](n4cnc5c(=O)nc(N)[nH]c54)C[C@@H]3O)[C@@H](COP(=O)(O)O[C@H]3C[C@H](n4cc(C)c(=O)[nH]c4=O)O[C@@H]3COP(=O)(O)O[C@H]3C[C@H](n4cnc5c(=O)[nH]c(=N)[nH]c54)O[C@@H]3COP(=O)(O)O[C@H]3C[C@H](n4cnc5c(=O)nc(N)[nH]c54)O[C@@H]3COCO[C@H]3C[C@H](n4cc(C)c(=O)[nH]c4=O)O[C@@H]3COP(=O)(O)O[C@H]3C[C@H](n4cnc5c(=O)[nH]c(=N)[nH]c54)O[C@@H]3COP(=O)(O)O[C@H]3C[C@H](n4cc(C)c(=O)[nH]c4=O)O[C@@H]3COP(=O)(O)O[C@H]3C[C@H](n4cnc5c(=O)[nH]c(=N)[nH]c54)O[C@@H]3COP(=O)(O)O[C@H]3C[C@H](n4cnc5c(=O)nc(N)[nH]c54)O[C@@H]3COP(=O)(O)O[C@H]3C[C@H](n4cc(C)c(=O)[nH]c4=O)O[C@@H]3COP(=O)(O)O[C@H]3C[C@H](n4cc(C)c(=O)[nH]c4=O)O[C@@H]3COP(=O)(O)O[C@H]3C[C@H](n4cnc5c(=O)nc(N)[nH]c54)O[C@@H]3COP(=O)(O)O[C@H]3C[C@H](n4cnc5c(=O)[nH]c(=N)[nH]c54)O[C@@H]3COP(=O)(O)O)O2)c(=O)[nH]c1=O
